Patent US20050043262A1, “Novel specific inhibitor of the cyclin kinase inhibitor p21Waf1/Cip1 and methods of using the inhibitor” (priority 2000, published 2005)

Tests used:
caspase-3 = assay: Caspase-3 activation (cleavage product) by Western blot in VSM cells; assay type: cell-based, rat
Method: FIGS. 19A and B depict how Caspase-3 is activated by antisense oligonucleotide to p21 but not early after radiation or Adriamycin, as described in Example III, infra. Confluent VSM cells were transfected with oligonucleotide in the concentration indicated, left in serum-containing media overnight, and exposed to (A) ionizing radiation (12 Gy) or (B) Adriamycin where indicated. 4 hours later, activation of caspase-3 was assessed by Western blotting. The arrowhead indicates the cleavage product of caspase-3 signifying its processing as an early step in apoptosis. Wortmannin (wort) is a positive control for apoptosis. […] The experiment shown is representative of two separate experiments.
Western blots: Cells were grown to confluence in 6 cm culture dishes and serum deprived. After transfection and or treatment with appropriate agonist, conditioned medium was removed and saved and the cells were washed with phosphate-buffered saline and lysed in lysis buffer. Both supernatant and cell lysate were normalized to the lysate protein concentrations and Western blotted as described (Weiss R H, et al. Am J Physiol 274:C1521-C1529, 1998).
In order to determine whether the potentiation of ionizing radiation and Adriamycin induced DNA synthesis inhibition by p21 antisense oligonucleotides is accompanied by apoptosis, caspase-3 activation in response to ionizing radiation was examined. Caspase-3 is an effector caspase whose activation (leading to apoptosis) results in a 20 kD cleavage product which can be assessed by Western blotting (McCarthy N J, Evan G I. Curr Top Dev Biol 36:259-278, 1998). This process is an early event in a cascade of reactions which ultimately leads to apoptosis, as is evident by the fact that inactivation of caspase-3 dramatically reduces apoptosis in several cell lines (Woo M, et al. Genes Dev 12:806-819, 1998).
VSM cells were transfected with antisense or control oligonucleotides overnight and then stimulated with ionizing radiation.

Met-1 cells = assay: Growth of Met-1 cells in culture; assay type: cell-based, mouse; conditions: transfection
VSM cells = assay: Apoptosis by Hoechst 33258 staining in VSM cells; assay type: cell-based, rat; conditions: 24 hours after transfection
Method: FIG. 20A-D show how the antisense oligonucleotide to p21 induces VSM cell apoptosis, as described in Example III, infra. VSM cells were grown on glass cover slips and transfected with (A,B) random sequence control oligonucleotide to p21 or (C,D) antisense oligonucleotide. 24 hours later, the cells were fixed and stained in situ with Hoechst 33258. Representative microscopic fields were photographed under (A,C) visual or (B,D) UV light at 40×.
Apoptosis assays: Cells were grown on collagen-coated coverslips, and transfected as stated above. 16-24 hours after transfection, cells were exposed to 12 Gy dose of γ-irradiation or 0.5 μM wortmannin. 24 hours later, cells were fixed in 3.7% formaldehyde (diluted in PBS) for 10 minutes. The cells were rinsed with cold PBS and permeabilized using 0.1% Triton X-100 (diluted in deionized water) for 5 minutes. Rinsed again with PBS, the cells on the coverslips were submerged in Hoechst Staining solution (3.0 μl in 37.5 ml deionized water) for 5 minutes. Cells were given a final three rinses with cold PBS before being mounted in polyvinyl alcohol mounting medium. Cell nuclei were visualized using a ZEISS WL Microscope and photographed under 40×.
As another measure of apoptosis, transfected cells fixed and stained with Hoechst 33258 were examined.

cyclin E/cdk 2 = assay: Cyclin E immunoprecipitation / cdk 2 immunoblot in A10 VSM cells; assay type: cell-based, rat; conditions: PDGF-BB 30 ng/ml
Method: Cells were transfected with p21^Waf1/Cip1 antisense (SEQ. ID NO.:1) or sense oligodeoxynucleotide (SEQ. ID NO.:2), allowed to grow overnight in serum-free media. After overnight incubation in serum-free medium, the cells were stimulated with PDGF-BB (30 ng/ml) for the times indicated. The cells were subsequently immunoprecipitated with either cyclin D1 or cyclin E and immunoblotted with cdk 4 or cdk 2, respectively.

## 5′-GACATCACCAGGATCGGACAT-3′
caspase-3; Adriamycin experiment (FIG. 19b)
  caspase-3 activation: caspase-3 activation was observed
caspase-3; alone or after ionizing radiation 12 Gy, 4 hours
  caspase-3 activation: impressive increase
Met-1 cells
  growth of Met-1 cells in culture: did not affect growth
VSM cells
  apoptotic changes (Hoechst 33258): extensive apoptotic changes
Cyclin E/cdk 2
  cyclin E/cdk 2 interaction: no change
